Patent publication US20210106698A1, “LIVER-SPECIFIC MRI CONTRAST AGENT INCLUDING MANGANESE SILICATE NANOPARTICLES” (POSTECH ACADEMY-INDUSTRY FOUNDATION, priority 2017, published 2021)

Legend:
[1] = T1 relaxation / T1-weighted image of HMS suspensions (3.0-T MR scanner); assay type: physicochemical; settings: comparison value for free Mn2+
Description: The release profile of manganese ions from HMS was quantified at room temperature using 8 mg of HMS suspensions in 16 ml of citrate buffer at pH 5 and pH 6.2 and distilled water. 4 ml of each HMS suspensions was collected from samples at 15 minutes, 1 hour, 7 hours and 20 hours, and the nanoparticles (NPs) of the sample were removed by centrifugation at 15,000 rpm for 10 minutes, and each supernatant was filtered by using syringe filter with […] of pore size. The amount of each released manganese ion and the T1 relaxation time of the proton in each supernatant were quantified using ICP-AES and a 3.0-T clinical MR scanner (Philips, Achieva ver. 1.2, Philips Medical Systems, Best, The Netherlands).
The Mn release property and T1 contrast enhancing property of HMS prepared in Example 1-2 were tested according to Example 1-3.

[2] = T1-weighted MRI of supernatants with released Mn2+ ions (R1, r1); assay type: physicochemical; settings: MnCl2 aqueous solution
Text: The contrast signal intensity of the photographed image was digitized (R1, unit=[…]), and shown in the graph of FIG. 9b. It is inferred that the released Mn^2+ ions can increase the contrast effect in T1-weighted image, on the basis that FIG. 9b is almost consistent with the graph of the release rate of Mn^2+ ions for each particle shown in FIG. 8e.
Next, the relationship between the concentration of Mn^2+ ions and the contrast intensity R1 of the image is shown in the graph of FIG. 9c. The slope of this graph is expressed as r1, and is a unique value for each material.

In the case of `[Cl][Mn][Cl]` [MnCl2], the “r1 value of free manganese ions” value [1] is reported as 7.8 s⁻¹ mM⁻¹ and the “r1 value for pure Mn^2+ ions” value [2] is reported as “about 7.4”.
